The values that follow come from patent US11137397B2, “Peptides for blocking IL1RAP protein-protein interaction and uses thereof for treatment of disease” (Albert Einstein College of Medicine, priority 2014, dated 2021).

Data set [1] relates to THP-1 cells. The data set is described as follows: Flow cytometric determination of cell death (Annexin V/DAPI). The data set is classed as cell-based, human. Conditions: 300 μM. On the procedure: FIG. 8. IL1RAP blockade causes cell death of IL1RAP dependent human leukemia cells. THP1 cells were exposed to 300 μM IL1RAP peptides (P1 and P2), scrambled control peptide (scrambled), peptide buffer (vehicle) or left untreated (UT) and evaluated for cell viability determined by Annexin V/DAPI staining and flow cytometry. The results are expressed as percentage of total cells.
In order to determine viability after peptide treatment, 1×10^4 THP-1 cells were washed with PBS and mixed with pre-diluted PE-conjugated Annexin V (BD Pharmigen) and DAPI. Cells were stained at room temperature for 15 minutes and suspended in 0.2 ml of Annexin V-FLUOS incubation buffer (Roche) for analysis.

Data set [2] deals with healthy bone marrow mononuclear cells (BMMNC). Put plainly: Clonogenic assay in methylcellulose, healthy BMMNC. The data set is classed as cell-based. Conditions: 300 μM for 4 hours, colonies scored at 14 days. The protocol: FIG. 6. […] BMMNC were exposed to scrambled peptide (scrambled), or IL1RAP peptides (P1 and P2) for 4 hours at 300 μM concentrations or left untreated (UT) and evaluated for colony formation capacity in methylcellulose. Colonies were scored at 14 days. The results are expressed as total number of colonies/5×10^4 plated cells. Error bars represent the standard deviation of two replicates.
Cell viability was assessed at the indicated time points by trypan blue staining and manual cell counts. Viable cells were plated in methylcellulose (StemCell technologies H4434, or R&D HSC002SF) at 1000 cells/ml in 6-well plates for cell lines and at 5×10^4 cells/ml for bone marrow mononuclear cells (BMMNC). Cells were incubated at 37° C. and 5% CO2. Colonies were scored after 7 days or 14 days in culture for cell lines or primary cells, respectively.

The subject of data set [3] is THP-1 cells. Put plainly: Cell morphology (cytospin, Diff-Quick staining). As to conditions: THP-1 cells that remained viable after 24 hours of treatment. The data set is classed as cell-based, human. The protocol:
FIG. 9. IL1RAP blockade changes in cell morphology of IL1RAP dependent human leukemia cells. THP1 cells were exposed to 100 μM IL1RAP peptide P2, scrambled control peptide (scrambled), peptide buffer (vehicle) or left untreated and evaluated for cell morphology.
1×10^4 THP-1 cells after treatment with peptides were rinsed with PBS and 0.1 ml of cell suspension was cytospun onto polylysine coated slides at minimum speed for 4 minutes in a cytocentrifuge (StatSpin Cytofuge). Slides were stained according to manufacturer's protocol using the Romanowsky staining Diff-Quick (IMEB) kit. Cells were imaged with an Axiovert 200M microscope (Zeiss) and Olympus SZ61 microscope.

No end group written: not given here.

Take “AGDKDRLIVMENKPTHGID [Peptide P2, AGDKDRLIVMENKPTHGID]”: the “overall reduction in viability in comparison to the scrambled control peptide” value in the data set with THP-1 cells [1] is recorded as 28%. In addition, the “inhibitory effects on healthy control bone marrow mononuclear cells (clonogenic potential)” value in data set [2] was “no inhibitory effects”.
As to “AGDKDRLIVMENKPTRPV [Peptide P1, AGDKDRLIVMENKPTRPV]”, the “overall reduction in viability in comparison to the scrambled control peptide” value with THP-1 cells [1] was found to be 14%. In addition, in data set [2], the “inhibitory effects on healthy control bone marrow mononuclear cells (clonogenic potential)” value is reported as “no inhibitory effects”.
Regarding “LKDMPGRPNERDKVAlTV (LKDMPGRPNERDKVAITV; not fully specified) [scrambled peptide]”, the cell morphology result with THP-1 cells [3] is listed as “maintained a blast-like morphology”.
